Earlier results, collected in patent publication US20140212465A1, “TREATMENT AND PREVENTION OF DENTAL PATHOLOGY IN HUMANS AND NON-HUMAN ANIMALS” (priority 2011, published 2014).

Conditions: aqueous environment

Structure (SMILES): [Ca+2].[OH-].[OH-] [calcium hydroxide]
- pH: 12.5
